{
  "source": "patent US4735651A",
  "about": "“Novel phytotoxic and plant growth regulating oligopeptide” (The United States of America as represented by the …, priority 1986, dated 1988)",
  "key": {"[1]": {"system": "lettuce (Lactuca sativa) cv. Northern Lakes seedlings", "test": "Root growth bioassay of germinating lettuce seedlings", "type": "in vivo", "settings": "lettuce seedling assay (L), 10^-6 M", "experimental": "(§1) Applicants' preferred embodiments of this invention comprises the incorporation of structural peptide backbone changes which increase conformational constraint, and vary the orientation of amino acid side chains when constrasted with naturally occurring amino acid sequences. […] Rooth growth inhibition/promotion was measured in germinating lettuce (Lactuca sativa) cv. Northern Lakes and curly cress (Lepidium sativum) seedling assays nominally used for screening herbicidal compounds and in a wheat coleoptile assay used for generally screening biological activity. Only compounds exerting measurable biological activities at 1×10^-6 M in concentration in the lettuce and cress assays and 1×10^-3 M in the wheat coleoptile are claimed.\n(§2) Aliquots of tested oligopeptide compounds of the type Formulas I-V were dissolved in ethyl acetate. One milliliter aliquots of the samples were pipetted onto a […] filter disk, dried, and placed in a Petri dish. One mL of distilled water was pipetted onto the filter paper and 15 lettuce seeds were uniformly distributed on the surface of the filter paper and allowed to imbibe in the dark at 20° to 25° C. for 24 h. The samples were subsequently placed in a growth chamber under continuous light at 28° C. for 72 h, and the root lengths were measured.\n(§3) During the course of these assays, visual assessment of seedling vigor was made in addition to root length measurements. […] Assessment of phytotoxicity was not confined to assessment of the root, but included any organ of the assay species."}, "[2]": {"system": "curly cress (Lepidium sativum) seedlings", "test": "Root growth bioassay of germinating curly cress seedlings", "type": "in vivo", "settings": "curly cress seedling assay (C), 10^-6 M", "experimental": "as §1, §2, §3"}, "[3]": {"system": "lettuce and cress seedlings", "test": "Lettuce and curly cress seedling assays, visual assessment and overall activity (species not split)", "type": "in vivo, Lactuca sativa; Lepidium sativum", "design": "key to Phytotoxicity: +: designated as phytotoxic if they exhibited either chlorosis and/or necrosis of tissues when compared with untreated control plants", "settings": "for Root growth inhibitor or promoter activity (in words): 10^-6 M; for Phytotoxicity: visual assessment of chlorosis and/or necrosis, any organ; for Phytotoxic properties observed (in words): visual assessment of seedlings", "experimental": "as §1, §2, §3"}, "[4]": {"system": "lettuce, potato, cucumber, spinach, radish, corn, tobacco", "settings": "literature; cited from earlier work"}, "[5]": {"system": "susceptible maize hybrids", "settings": "literature; cited from earlier work"}},
  "data": [
    {"molecule": "COC(=O)CNC(=O)/C(=C/c1ccccc1)NC(=O)[C@@H](C)NC(=O)OC(C)(C)C", "note": "[Compound 10, Boc-D-Ala-Δ^z Phe-Gly-OMe]", "values": [
      {"measurement": "% Root Growth Inhibitor (inhibition)", "setting": "[1]", "value": 40, "unit": "%"},
      {"measurement": "% Root Growth Inhibitor (inhibition)", "setting": "[2]", "value": 20, "unit": "%"}
    ]},
    {"molecule": "CCN(C(=O)[C@@H](CC(C)C)NC(=O)OC(C)(C)C)/C(=C\\c1ccccc1)C(=O)NCC(=O)OC", "note": "[Compound 7, Boc-D-Leu-N(C2 H5)Δ^z Phe-Gly-OMe]", "values": [
      {"measurement": "% Root Growth Inhibitor (inhibition)", "setting": "[1]", "value": 50, "unit": "%"},
      {"measurement": "% Root Growth Inhibitor (inhibition)", "setting": "[2]", "value": 80, "unit": "%"}
    ]},
    {"molecule": "CC(C)C[C@@H]1NC(=O)[C@H](C)N(C)C(=O)CNC(=O)/C(=C/c2ccccc2)N(C)C1=O", "note": "[Compound 13, cyclo [L-Leucyl-N-methyl-(Z)-dehydrophenylalanyl-glycyl-N-methyl-L-alnyl]]", "values": [
      {"measurement": "Root growth inhibitor or promoter activity (in words)", "setting": "[3]", "value": "Not active as a inhibitor"},
      {"measurement": "Root growth inhibitor or promoter activity (in words)", "setting": "[3]; listed as tentoxin", "value": "none of the plant growth inhibiting or promoting properties"},
      {"measurement": "Phytotoxicity", "setting": "[3]", "value": "+"},
      {"measurement": "Phytotoxic properties observed (in words)", "setting": "[3]", "value": "induces chlorosis in lettuce seedlings"},
      {"measurement": "Chlorosis induction", "setting": "[4]", "value": "induces chlorosis in lettuce, potato, cucumber and spinach but not in radish, corn and some species of tobacco"}
    ]},
    {"molecule": "COC(=O)CNC(=O)/C(=C/c1ccccc1)N(C)C(=O)[C@H](CC(C)C)NC(=O)OC(C)(C)C", "note": "[Compound 8, Boc-Leu-N(CH3)Δ^z Phe-Gly-OMe]", "values": [
      {"measurement": "% Root Growth Inhibitor (inhibition)", "setting": "[1]", "value": 60, "unit": "%"},
      {"measurement": "% Root Growth Inhibitor (inhibition)", "setting": "[2]", "value": 50, "unit": "%"}
    ]},
    {"molecule": "C[C@@H]1NC(=O)[C@H]2CCCN2C(=O)[C@H](CCCCCC(=O)[C@@H]2CO2)NC(=O)[C@@H](C)NC1=O", "note": "[HC toxin]", "values": [
      {"measurement": "Root growth inhibition", "setting": "[5]", "value": "root growth inhibition of susceptible maize hybrids"}
    ]},
    {"molecule": "COC(=O)CNC(=O)/C(=C/c1ccccc1)N(C)C(=O)[C@@H](NC(=O)OC(C)(C)C)C(C)C", "note": "[Compound 12, Boc-Val-N(CH3)Δ^z Phe-Gly-OMe]", "values": [
      {"measurement": "% Root Growth Inhibitor (inhibition)", "setting": "[2]", "value": 85, "unit": "%"}
    ]},
    {"molecule": "Boc-N(CH3)-Ala-Leu-N(CH3)Δ^z Phe-Gly-OMe [Compound 5]", "values": [
      {"measurement": "Root growth inhibitor or promoter activity (in words)", "setting": "[3]", "value": "active"},
      {"measurement": "Phytotoxicity", "setting": "[3]", "value": "+"},
      {"measurement": "Phytotoxic properties observed (in words)", "setting": "[3]", "value": "root growth inhibition leading to early mortality"}
    ]}
  ]
}
